Assay results: BindingDB's records for patent US11192859 (2021)

biological target: Advanced glycosylation end product-specific receptor (Homo sapiens, UniProt Q15109); test: Inhibitory Activity Assay
Experimental: Table 2-3: Step 1. Add 50 μl anti-DIAPH1 (1:160 dilution in 0.1M NaHCO3 pH 9.6)/well. Incubate overnight at 4° C. Day 2 Step 2. Use the plate washer to aspirate anti-DIAPH11 and wash plates 4× with PBS 100 μl per well per wash. Step 3. Add 180 μl 3% BSA in 1×PBS. Incubate for 1.5 hrs at room temperature Step 4. Use the plate washer to aspirate the blocking solution and wash 5× with PBS 300 μl per well. Step 5. Add 50 μl of DIAPH1 containing lysate (85 μg) and incubate at RT for 3 hours. Step 6. Aspirate the lysate and wash the plate 5×(100 μl) on the plate washer. Step 7. Add 25 μl PBS to the wells. Step 8. Add 0.5 μL compound per well. Step 9. Add 24.5 μL GFP RAGE tail (125 nM) into each well for 2 hrs at room temperature. Step 10. Aspirate and wash 5× with PBS (100 μL) on the plate washer. Step 11. Add 100 μl PBS in each well. Step 12. Detection: Read on fluorescence plate reader excitation 435 nm and 485 nm emission

Chain of Advanced glycosylation end product-specific receptor (Q15109 whole entry): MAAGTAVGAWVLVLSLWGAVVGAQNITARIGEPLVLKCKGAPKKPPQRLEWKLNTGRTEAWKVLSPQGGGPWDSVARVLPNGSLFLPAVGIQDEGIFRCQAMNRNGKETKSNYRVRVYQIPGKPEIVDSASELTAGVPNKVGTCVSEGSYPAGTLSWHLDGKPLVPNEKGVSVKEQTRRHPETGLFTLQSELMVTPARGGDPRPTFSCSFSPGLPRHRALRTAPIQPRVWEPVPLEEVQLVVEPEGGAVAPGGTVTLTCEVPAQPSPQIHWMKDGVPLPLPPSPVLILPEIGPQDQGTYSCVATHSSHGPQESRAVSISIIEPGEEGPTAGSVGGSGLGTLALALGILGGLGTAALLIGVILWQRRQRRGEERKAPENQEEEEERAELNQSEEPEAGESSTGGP

Structure (SMILES) | Kd [µM]
CC(=O)Nc1ccc(-c2cc(C(=O)NCCN(C)C)c3ccccc3n2)cc1 [US11192859, Compound 4] | 56
CC(=O)Nc1ccc(-c2cc(C(=O)N3CCOCC3)c3ccccc3n2)cc1 [US11192859, Compound 5] | 41
COCCNC(=O)c1cc(-c2ccc(NC(C)=O)cc2)nc2ccccc12 [US11192859, Compound 6] | 99
CC(=O)Nc1ccc(-c2cc(C(=O)N3CCCC3)c3ccccc3n2)cc1 [US11192859, Compound 7] | 77
